From patent US7511123B2, “Immuno-interactive fragments of the alpha-C subunit of inhibin” (Prince Henry's Institute of Medical Research, priority 1999, dated 2009) come the findings set out here.

Experiment [1] concerns As #128. The experiment in a line: Solid phase assay (Assay 1): biotinylated peptides binding to As #128. Further details: species or system sheep; key: +++++ major contribution; + minor contribution. As to conditions: relative contribution. The method, boiled down: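 The 31 biotinylated peptides were captured on streptavidin-coated wells for 2 h at room temperature, then incubated with ovine antiserum #41 or #128 for 2 h at room temperature. Bound antiserum was detected with HRP-labelled anti-ovine IgG and a colorimetric substrate read spectrophotometrically; the signal is proportional to peptide binding.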

Experiment [2] deals with As #41. As to the kind of experiment: RIA (Assay 2): competition with iodinated inhibin for As #41. The class given is binding, sheep. The method, boiled down:
(§1)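 Graded doses of peptide or hr-inhibin standard competed with iodinated human recombinant 30 kDa inhibin tracer for the sheep antiserum at a set dilution, overnight at 4°C. Bound tracer was precipitated with goat anti-sheep IgG and gamma-counted. ED50 is the dose producing 50% loss of tracer binding.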

Experiment [3] concerns As #128. As to the kind of experiment: RIA (Assay 2): competition with iodinated inhibin for As #128. Type of experiment: binding, sheep. Summed up: as §1
The subject of the next experiment is As #1989. The experiment in a line: RIA (Assay 2): competition with iodinated inhibin for As #1989. Type of experiment: binding, rabbit. Summed up: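 Radioimmunoassay measuring how well peptides compete with iodinated 30 kDa human recombinant inhibin tracer for binding to antiserum #1989. Graded doses of peptide, iodinated inhibin and diluted antiserum were incubated overnight at 4° C. Antibody-bound tracer was precipitated with goat anti-sheep IgG serum and counted in a gamma counter. The ED50, the peptide concentration halving tracer binding, indicated affinity.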

Experiment [4] deals with As #41. As to the kind of experiment: Competitive 2-site assay (Assay 3), approach (b). To be noted: biotinylated peptide pools or peptides incubated with iodinated As #41. Type of experiment: binding, sheep. The text has this: This assay was developed to establish the relative importance of the individual peptides and peptide pools (identified as epitopes in Assays 1 and 2) in the sandwich antibody format used in the IFMA with As #128 as capture antibody and As #41 as detection antibody. Two approaches (a and b) were considered, Approach (a) explores the cross-reaction of peptides with inhibin for the immobilized As #128 while Approach (b) assesses their cross-reaction with inhibin for As #41.
Approach (b). In this approach, the competition of peptides with the As #41 antiserum using the sandwich antibody format was assessed. Hr-Inhibin was initially incubated with the As #128 coated wells for 1 hour at room temperature. The biotinylated peptide pools and/or individual peptides were incubated together with iodinated As #41 for 1 hour and then added to the inhibin bound As #128 coated plates and incubated for 2 hours at room temperature. Plates were then washed to remove any unbound material and the resulting activity was measured in the gamma counter.

Experiment [5] concerns As #128. The experiment in a line: Two-site assay design: peptides pre-incubated with As #128 coated plate. Type of experiment: binding, sheep. To be noted: non-biotinylated peptides 0.1-1 micromolar. How it is done:
On the other hand, the IFMA design is based on the total amount of inhibin bound which is a combination of both antibody affinity and concentration. In order to establish to what extent epitopes to these peptides contribute to the overall IFMA, the following two-site assay designs were used.
(i) Peptides #5, #20 and #30 (0, 0.1-1 micromolar) were incubated with the As #128 coated plate for 1.5 hours at RT and the wells washed. The highest dose of peptide used was saturating.
(ii) Hr-Inhibin was then added as a saturating or near saturating dose to the As #128 coated plate and incubated for 2 hours at room temperature and the plate washed.
(iii) Biotinylated As #41 was added to the above wells and incubated for 2 hours at RT. Plates were then washed and counted.

Experiment [6] deals with As #41. As to the kind of experiment: Two-site assay design variation: biotinylated #41 pre-incubated with peptide. The class given is binding, sheep. As to conditions: non-biotinylated peptides 0.1-1.0 micromolar. How it is done:
(iv) In a variation to the above design, biotinylated #41 was pre-incubated with peptide (0.1-1.0 micromolar) for 1.5 hours at room temperature and then added to the As #128 coated plate pre-bound with inhibin as for (i)-(iii). […] Combination of peptide #5 and #30 led to 74% decrease.

The next experiment concerns As#41. The experiment in a line: Sandwich assay with As#41 as both coating and labeled antibody, no inhibin. The class given is binding, sheep. To be noted: peptide added to both coating and labeled As#41. From the text:
It has not been established if the same antibodies are present in As #128.

For experiment [7], the system named is PO-22. The experiment in a line: Solid phase binding of Set 2 peptides to PO-22. Further details: species or system mouse; key: +++; ΦΦΦ strong effect; +, Φ weak effect. As to conditions: Set 2 biotinylated peptides 24 micromoles/L. As to the method: The binding of the 41 biotinylated peptides as set forth in Table 7 (peptide set 2) to the mouse monoclonal antibodies (PO# series) was assessed as follows:
a) Assay 1 (solid phase assay). The assay was undertaken as outlined in assay 1 of Example 2. Biotinylated peptides (24 micromoles/L) were initially bound to streptavidin-coated plates. Mab (at an appropriate dilution to give a detectable response, 1:1000, 1:10000 dilution of the culture medium) was then added and incubated for 1.5 hr. The amount of bound Mab was determined using horseradish peroxidase-bound anti-mouse IgG serum and enzyme activity detected at 450-630 nm using an ELISA plate reader.

The test system of experiment [8] is PO-22. As to the kind of experiment: RIA of Set 2 peptides with PO-22. The class given is binding, mouse. To be noted: Set 2 biotinylated peptides 0.8 and 0.08 micromoles/L. How it is done:
The binding of the 41 biotinylated peptides as set forth in Table 7 (peptide set 2) to the mouse monoclonal antibodies (PO# series) was assessed as follows: b) Assay 2 (radioimrnunoassay, RIA) using iodinated human inhibin A as tracer. Mabs (at an appropriate dilution, see above) were incubated with iodinated human recombinant inhibin in the presence of biotinylated peptides (0.8 and 0.08 micromoles/L final concentration) overnight at room temperature.

The mark [9] stands for this setting: biotinylated peptides, 50% fall in binding of iodinated inhibin.
[10] abbreviates: non-biotinylated peptides, hr-inhibin A as standard.

As for SGSG WSPSALRLLQRPPE [Peptide 5], the “#128 Antibody screen Assay 1” value in the experiment on As #128 [1] is given as “+”. In the experiment on As #41 [2] (setting [9]), the “As#41 ED50” value is 15 pM. Also, the “cross-reaction with hr-inhibin for As #41 in RIA” value in the experiment with As #41 [2] (in words) is “cross-reacted strongly”. Further, the “ED50 values As#41” value in the experiment with As #41 [2] (setting [10]) amounted to 0.0004 µM. Moreover, the “As#128 ED50” value with As #128 [3] (setting [9]) came out at 3.8 µM. For the same substance, the “ED50 values As#128” value with As #128 [3] (setting [10]) is above 10 µM. Moreover, the “As#1989 ED50” value in the experiment on As #1989 (setting [9]) is above 2.5 µM. Also, in the experiment on As #1989 (setting [10]), the “ED50 values As#1989” value was above 10 µM. In addition, the “blocking of As #41 binding to the inhibin-As#128 complex” value in the experiment with As #41 [4] came to 50%. The “suppression in binding with As #128” value in the experiment on As #128 [5] was determined as 65%. Besides, the “inhibition with biotinylated #41 pre-incubated with peptide” value in the experiment with As #41 [6] amounted to 50%. In addition, in the experiment with As#41, the “binding in the absence of inhibin” value is on record as “significant binding”. For the same substance, the “PO-22 SPB” value with PO-22 [7] was “+++”. Further, the “PO-22 RIA” value in the experiment on PO-22 [8] is listed as “ΦΦ”.
